The test system of data set [1] is Ph-ALL3.1 cells. Description: Release of elutriated S phase cells, FACS and 3H-thymidine incorporation. In kind it is cell-based, human. The procedure:
FIG. 5. […] Ph-ALL3.1 cells were subjected to standard centrifugal elutriation conditions and the S phase fraction, as determined by FACS analysis, was released into granaticin A (1 μM) or vehicle control (DMSO) for the indicated times and FACS analysis was performed. […] Apoptosis was confirmed in additional independent experiments. Asynchronous and time zero correspond to an asynchronous cell sample and the elutriated S phase fraction prior to release, respectively.
FIG. 6. Thymidine incorporation in S-phase: ^3H-Thymidine incorporation during the release experiment outlined in the slide above. Cell samples post-release into granaticin A or vehicle control (DMSO) were pulsed for 2 hours with ^3H-thymidine, and samples were collected, washed, and acid precipitable counts were measured by scintillation counting. X-axis is time post-release into compound or control (in hours) and y-axis is counts per minute (CPM).
On the technique in general: Incorporation of labelled thymidine or its analogues reports DNA synthesis.

For data set [2], the system named is HeLa cells. Description: S phase checkpoint western blot analysis. In kind it is cell-based, human. The procedure: FIG. 15. […] HeLa cells were incubated in the presence of granaticin A or carrier control (DMSO) for the indicated times and whole cell extracts were subjected to SDS-PAGE and western blot analysis. Asyn=asynchronously growing HeLa cells. HU=HeLa cells exposed to hydroxyurea for the indicated time. HU was used as a control for DNA damaging agent that is known to […] the DNA damage checkpoint response. Again, we observed that Mcm2 mobility is shifted in the cells treated with granaticin A. MCM2 mobility is not affected by HU. Activation of the DNA damage/replication checkpoint correlates with ATM/ATR dependent phosphorylation of Chk1 at Ser345.
A general note: In western blotting, separated proteins are transferred to a membrane and probed.

The test system of data set [3] is Ph-ALL3.1 cells. Description: Release of elutriated G1 phase cells, 3H-thymidine incorporation and FACS. Further details: dose or concentration left out as unconfirmed. The format is cell-based, human. As to conditions: G1 phase fraction released into granaticin A. As to the method: FIG. 2. Elutriation profile of PhALL3.1: Centrifugal elutriation was used to synchronize the recently established Philadelphia chromosome positive acute lymphoblastic leukemia cell line (PhALL3.1). An asynchronous culture (4 liters) was pelleted, resuspended in a small volume (20 ml), and loaded into the elutriation rotor as outlined by the manufacturer (Beckman). After equilibration and washing, cell samples were eluted from the rotor based on size with the smaller cells exiting the rotor first. Ten fractions (250 ml) were taken across the gradient and standard FACS analysis performed on 10 ml of each fraction looking at DNA content. G1, S, and G2 phase cell populations are indicated in the asynchronous profile. This method allows for isolation of phase specific cell populations.
FIG. 3. […] Ph-ALL3.1 cells were subjected to standard centrifugal elutriation conditions and the G1 phase fraction, as determined by FACS analysis (Time Zero), was released into granaticin A ([…]) or vehicle control (DMSO) for the indicated times. Cell samples post-release into granaticin A or vehicle control (DMSO) were pulsed for 2 hours with ^3H-thymidine and samples were collected, washed, and acid precipitable counts were measured by scintillation counting. X-axis is time post-release into compound or control (in hours) and y-axis is counts per minute (CPM). […]

Data set [4] deals with PhALL3.1. Description: SCID-Beige mouse intraperitoneal tumor model of PhALL3.1. In kind it is in vivo. As to the method:
FIGS. 19A-19B. Granaticin A Inhibits growth of PhALL3. 1 in vivo: Using a SCID-Beige mouse intraperitoneal tumor model of PhALL3.1, mice were intraperitoneally treated with vehicle control (DMSO) or the indicated doses of granaticin A on days 3, 6, 9, and 12. Day 16 in vivo bioluminescence imaging (FIG. 19A) and quantitation of tumor volume are shown (FIG. 19B) and indicate 90% reduction in tumor volume by Day 16 in mice treated at the highest dose (3.0 mg/kg).

Data set [5] is described as follows: Liver microsome stability test. In kind it is in vitro ADME. The procedure: The stability of granaticin A was determined in mouse and human liver microsomes.
In general terms: Microsomes from liver hold many membrane-bound enzymes, among them those of drug oxidation.

Data set [6] concerns PhALL3.1. In kind it is in vivo. From the text: FIGS. 20A-20C. Granaticin B Inhibits Ph-ALL3. 1 growth in vivo: Given the rapid intravenous clearance of granaticin A by the liver, granaticin B was used in a continuous infusion experiment with the PhALL3.1 animal model. Diffusion pumps containing granaticin B were surgically implanted in the flanks of 5 cohorts of mice on day +3 after injection of 5 million cells via the tail veins, and the drug (or control—C-DMSO) at the indicated concentration was allowed to diffuse for seven days before pump removal. The mice were imaged on day 12 (FIGS. 20A-20B) and tumor volume remaining was calculated (FIG. 20C).

The nature of data set [7]: Standard solubility studies. In kind it is physicochemical. The procedure:
Standard solubility studies were conducted with granaticin B. In aqueous solution, 4.0 mg/ml of granaticin B is soluble. In alcohol, >188 mg/ml of granaticin B is soluble. In methanol, >252 mg/ml of granaticin B is soluble.

In data set [8] the test system is SKMEL-28. In words: Nude mouse xenograft, melanoma. In kind it is in vivo. As to conditions: 2.5 mg/kg/day continuous, osmotic diffusion pumps; sections at day 28. As to the method: FIG. 22A-22C. Granaticin B is Effective Against Multiple Solid Tumors: granaticin B is efficacious against mouse models of melanoma (FIG. 22A), non-small cell lung cancer (FIG. 22B), and ovarian cancer (FIG. 22C). For the ovarian cancer experiments, SCID-Beige mice were injected with 5 million OVCAR3 cells that had been transduced with a GFP-firefly luciferase expressing plasmid (Frattini, M. G. and Brentjens, R. J., unpublished data). These cells were then injected intraperitoneally into 4 cohorts of mice on Day 1. From days 7-14 the mice were injected daily with the indicated concentrations of granaticin B in the intraperitoneal space. […] Nude mice were treated with 2.5 mg/kg/day granaticin B in a continuous fashion using osmotic diffusion pumps. Sections of the treated xenografts are shown after euthanasia at day 28 and H&E staining.

Values after ≈ are worked out from the molar mass of the structure shown. Where two headings read alike, the source gives them in different places. Bounds are passed on as bounds.

With `CC1OC2CC(O)C1(O)c1c(O)c3c(c(O)c12)C(=O)C1=C(C3=O)[C@H](C)O[C@H]2CC(=O)O[C@@H]12` (stereo partly shown) [Granaticin A, granaticin A], the “cell cycle profile by FACS” value in data set [1] (S phase fraction released into 1 μM) was “cell cycle arrest and apoptosis”. The 3H-thymidine incorporation result was “markedly reduced incorporation” in data set [1] (S phase fraction, 2 hours pulses post-release) and “stop incorporating ^3H-thymidine” in data set [3]. In data set [2] (HeLa cells), the “double strand DNA breaks” value is “increased double strand DNA breaks”. Also, in data set [2] (SDS-PAGE and western blot), the Mcm2 mobility result is “shifted”. Moreover, the “S phase checkpoint activation” value in data set [2] (western blot, Chk1 Ser345) was “does not activate the S phase checkpoint”. Further, the cell cycle profile entry in data set [3] was “G1 phase arrest”. Moreover, the “organ toxicity at necropsy” value in data set [4] (all mice examined at each dose level) is “no significant (grade 2 or higher) organ toxicity”. Further, the “reduction in tumor volume” value in data set [4] (highest dose 3.0 mg/kg intraperitoneally on days 3, 6, 9, 12, Day 16 bioluminescence imaging) was 90%. For the same compound, the figures for the recovery at 30 min in data set [5] (human liver microsomes) and in data set [5] (mouse liver microsomes) were 23.9% and 3.68%, respectively. In addition, the recovery at 60 min in data set [5] (human liver microsomes) is 12%; in data set [5] (mouse liver microsomes), 3.84%.
With `CC1OC2CC(O[C@H]3CC[C@H](O)[C@H](C)O3)C1(O)c1c(O)c3c(c(O)c12)C(=O)C1=C(C3=O)[C@H](C)O[C@H]2CC(=O)O[C@@H]12` (stereo partly shown) [Granaticin B, granaticin B], in data set [6] (highest dose, diffusion pump for seven days from day +3, imaged on day 12), the tumor reduction was determined as 95%. Moreover, the “organ toxicity at necropsy” value in data set [6] (mouse, in vivo) was “without obvious organ toxicity”. The solubility in data set [7] (organic solvent or mixture, in alcohol) is > 188 mg/mL; in data set [7] (organic solvent or mixture, in methanol), > 252 mg/mL; in data set [7] (water, in aqueous solution), 4 mg/mL (≈ 7.16 mM). In data set [8], the “efficacy in mouse model of melanoma” value is listed as “efficacious”.

As a reminder, the solubility is the dissolved amount per volume that the medium holds.

The record behind these values is patent US20210283099A1, “CDC7 KINASE INHIBITORS AND USES THEREOF” (SLOAN-KETTERING INSTITUTE FOR CANCER RESEARCH, priority 2010, published 2021).
